The record followed here is US9157099B2, “Methods for preparing a hydrocarbon” (SHELL OIL COMPANY, priority 2012, dated 2015).

As a reminder, the Km is the substrate concentration at which the rate is half of its maximum. Broadly, the kcat is the maximal rate divided by the concentration of active sites.

Entries after “also recorded” stand apart in the source; their conditions may differ.

Series [1] deals with T1, fdc1/pad1 in pCOLAduet in E. coli Bl21(DE3) (Saccharomyces cerevisiae, UniProt Q03034).
T1 construct: expressed in transfected cells; host or cells: E. coli Bl21(DE3) carrying fdc1 (MCS1) and pad1 (MCS2) in pCOLAduet-1
T1 sequence (Q03034 1-503): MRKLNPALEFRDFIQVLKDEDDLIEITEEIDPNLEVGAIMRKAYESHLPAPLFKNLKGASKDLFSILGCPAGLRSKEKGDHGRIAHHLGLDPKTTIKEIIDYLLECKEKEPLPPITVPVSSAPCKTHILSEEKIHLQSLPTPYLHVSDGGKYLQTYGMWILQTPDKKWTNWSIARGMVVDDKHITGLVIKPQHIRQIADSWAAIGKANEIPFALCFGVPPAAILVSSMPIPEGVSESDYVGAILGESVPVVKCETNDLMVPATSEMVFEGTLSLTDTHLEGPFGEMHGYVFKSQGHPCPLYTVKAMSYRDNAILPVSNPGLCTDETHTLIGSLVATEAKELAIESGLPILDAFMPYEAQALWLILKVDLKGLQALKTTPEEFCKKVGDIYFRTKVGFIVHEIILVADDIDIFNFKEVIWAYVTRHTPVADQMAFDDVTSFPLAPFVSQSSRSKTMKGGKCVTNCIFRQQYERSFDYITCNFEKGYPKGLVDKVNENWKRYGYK
As to the kind of experiment: head space GC-MS product analysis, in vivo (induced cultures). The class given is cell-based. The note with it: E. coli cultures expressing Fdc1/Pad1, 25° C. The method, then:
For in vivo analysis, fdc1/pad1 in pCOLAduet and empty pCOLAduet in E. coli Bl21(DE3) were grown in LB supplemented with 40 μg/ml kanamycin at 37° C. to an OD600 of about 0.7 and induced with […] IPTG. 11.5 ml induced culture and a solution of 3.5 ml 20 mM substrate in distilled water with a pH of about 7.5 were placed in 20 ml head space vials with crimp top seals. Cultures were incubated in shaking incubator at 25° C. for about 12-48 hours.
(§1) Samples were analysed by GC-MS using a Thermofisher DSQ II. Vials were incubated for 3 minutes at 80° C. with agitation. 0.5 ml headspace was injected with a 105° C. syringe and a split ratio of 1/10. Analytes were separated on a 30 m 0.25 mm 0.25μ ZB5-MS (commercially obtainable from Zebron) column run (alternatively a 30 m×0.25 mm i.d.×0.1μ Varian VF-5HT column may be used) with a flow of 1.5 ml/min He. Oven temperature was held at 35° C. for 2 minutes before being ramped up to 250° C. at 10° C./min. Products were identified by searching for the corresponding mass peak.
As described above, for in vivo studies, Fdc1/Pad1 in pCOLAduet-1 and empty pCOLAduet-1 vector were transformed into E. coli Bl21(DE3). Cultures were grown in LB supplemented with 40 μg/ml kanamycin at 37° C. to OD600˜0.7 and induced with 1 mM IPTG. 11.5 ml of induced culture was added to 3.5 ml 20 mM substrate pH ˜7.5 per tube in a sealed headspace vial.
(§2) All Fdc1/Pad1 reactions were incubated in a shaking incubator at 25° C. for ˜36 hours.
(§3) Samples were analysed by GC-MS using a Thermofisher DSQ II. Vials were incubated for 3 minutes at 80° C. with agitation. 0.5 ml headspace was injected with a 105° C. syringe and a split ratio of 1/10. Analytes were separated on a 30 m 0.25 mm 0.25μ ZB5-MS (or 30 m×0.25 mm i.d.×0.1μ Varian VF-5HT) column run with a flow of 1.5 ml/min He. Oven temperature was held at 35° C. for 2 minutes before being raised to 250° C. at 10° C./min. Products were identified by searching for the corresponding mass peak.

Series [2] deals with T2, Fdc1/Pad1 (Saccharomyces cerevisiae, UniProt Q03034).
T2 construct: His (N); made in house; host or cells: E. coli Bl21(DE3), pCOLAduet-1
T2 sequence (Q03034 1-503): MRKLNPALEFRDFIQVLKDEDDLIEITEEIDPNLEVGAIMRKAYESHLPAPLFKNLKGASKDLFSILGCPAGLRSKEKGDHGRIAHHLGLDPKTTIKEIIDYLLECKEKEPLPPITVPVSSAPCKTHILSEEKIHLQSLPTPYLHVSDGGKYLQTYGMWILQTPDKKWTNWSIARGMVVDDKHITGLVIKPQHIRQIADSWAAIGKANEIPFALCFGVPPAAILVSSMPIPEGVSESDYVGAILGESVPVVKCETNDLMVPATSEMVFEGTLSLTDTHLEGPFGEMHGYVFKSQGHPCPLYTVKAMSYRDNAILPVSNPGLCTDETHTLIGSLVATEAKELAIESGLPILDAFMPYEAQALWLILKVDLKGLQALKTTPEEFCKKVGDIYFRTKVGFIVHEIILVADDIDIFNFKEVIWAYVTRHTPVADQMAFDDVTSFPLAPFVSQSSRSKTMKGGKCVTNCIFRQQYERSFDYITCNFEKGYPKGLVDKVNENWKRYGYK
Nature of the series: Fdc1/Pad1 substrate range, in vivo and in vitro (summary). The note with it: summary of substrate range. An excerpt:
To assess what limit the enzyme imposes on the extent of unsaturation, the inventors tested a wide range of saturated and unsaturated substrates, both in vivo and in vitro.

Series [3] concerns the target T3, purified His-Fdc1/Pad1 (Saccharomyces cerevisiae, UniProt Q03034).
T3 sequence (Q03034 1-503): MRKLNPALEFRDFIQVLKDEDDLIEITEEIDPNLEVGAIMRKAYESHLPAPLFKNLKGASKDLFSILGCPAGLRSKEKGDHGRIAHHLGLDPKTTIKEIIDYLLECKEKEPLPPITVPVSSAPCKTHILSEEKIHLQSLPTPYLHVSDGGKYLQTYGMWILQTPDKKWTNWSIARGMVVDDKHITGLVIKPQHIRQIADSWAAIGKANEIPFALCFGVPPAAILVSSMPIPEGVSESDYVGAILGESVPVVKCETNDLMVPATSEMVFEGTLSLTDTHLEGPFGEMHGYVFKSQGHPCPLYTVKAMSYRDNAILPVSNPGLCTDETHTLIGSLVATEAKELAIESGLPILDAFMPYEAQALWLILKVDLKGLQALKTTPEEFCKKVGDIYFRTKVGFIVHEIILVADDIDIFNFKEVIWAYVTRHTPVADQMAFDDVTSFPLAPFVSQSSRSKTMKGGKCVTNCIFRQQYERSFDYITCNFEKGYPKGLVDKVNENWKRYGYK
As to the kind of experiment: head space GC-MS product analysis, in vitro reactions. Type of series: biochemical. The arrangement: His (N); made in house; host or cells: E. coli Bl21(DE3), pCOLAduet-1 co-expression plasmid, Ni-NTA purified. The settings on record: purified enzyme, 25° C. How it is done: For in vitro analysis, purified His-Fdc1/Pad1 polypeptide was buffer exchanged into a solution of 150 mM NaCl and 50 mM NaPi in water with pH 7.5. Subsequently solutions of 11.5 ml 150 mM NaCl and 50 mM NaPi with pH 7.5, of 3.5 ml 20 mM substrate with pH 7.5 and of 150 μl 30 mg/ml enzyme in water or buffer were added to 20 ml head space vials with crimp top seals. Reactions were incubated with shaking at 25° C. for about 12-48 hours.
as §1
For in vitro reactions, Fdc1/Pad1 partially purified by Ni^2+ affinity and buffer exchanged into 150 mM NaCl, 50 mM NaPi pH 7.5. 11.5 ml […] pH 7.5, 3.5 ml 20 mM substrate pH 7.5 and 150 μl 30 mg/ml enzyme or enzyme free buffer were added to a sealed headspace vial.
as §2, §3

In series [4] the target is T3, purified His-Fdc1/Pad1. As to the kind of experiment: UV-VIS spectroscopy of substrate consumption, Michaelis Menten parameters. The note with it: for Kcat: substrate of purified His-Fdc1/Pad1, pH 6, 20° C. How it is done: A direct observation of enzyme activity is possible by recording UV-VIS spectra of the solution. Aromatic substrates and aliphatic substrates with two or more double bonds conjugated to the acidic group absorb in the UV region. The activity of purified His-Fdc1/Pad1 was assayed against varying concentrations of these substrates in 400 μl 50 mM KCl, 50 mM NaPi pH 6 in a 1 mm pathlength cuvette at 20° C. Substrate consumption was monitored using a Cary 50 Bio spectrophotometer (varian) either in scanning mode, or at a specific wavelength for kinetic experiments. The rate of cinnamic acid consumption was monitored at 270 nm, ferulic acid at 312 nm, 2,4-pentadienoic acid at 242 nm, sorbic acid at 260 nm, 2,4,6-octatrienoic acid at 290 nm and 2,4-nonadienoic acid at 260 nm.

Series [5] deals with E. coli Bl21(DE3) cells containing the fdc1/pad1 co-expression plasmid (Saccharomyces cerevisiae, UniProt Q03034). The settings on record: 6 mM sorbic acid, pH 6.2, overnight at 37° C. The method, then: In vivo enzyme activity assays were carried out using exogenous supplied substrates in the media (i.e. sorbic acid).
For in vivo pH assays, LB agar plates were supplemented with […] kanamycin, 6 mM sorbic acid and 0.004% w/v phenol red in distilled water and buffered to pH 6.2. E. coli Bl21(DE3) cells containing either the co-expression plasmid or empty pCOLAduet-1 were inoculated onto the plate and grown overnight at 37° C. […] This allows rapid visual indication of enzyme activity levels.

Substrate in series [6]: C/C=C/C=C/C(=O)O
Nature of the series: purified protein, by the assay type. The settings on record: other: substrate of purified His-Fdc1/Pad1, pH 6, 20° C.

Substrate in series [7]: C=CC=CC(=O)O
Nature of the series: purified protein, by the assay type. The note with it: other: substrate of purified His-Fdc1/Pad1, pH 6, 20° C.

Substrate in series [8]: CC=CC=CC=CC(=O)O
Nature of the series: purified protein, by the assay type. The note with it: other: substrate of purified His-Fdc1/Pad1, pH 6, 20° C.

Substrate in series [9]: CCCCC=CC=CC(=O)O
As to the kind of experiment: purified protein, by the assay type. The settings on record: other: substrate of purified His-Fdc1/Pad1, pH 6, 20° C.

Substrate in series [10]: COc1cc(/C=C/C(=O)O)ccc1O
Nature of the series: purified protein, by the assay type. The settings on record: other: substrate of purified His-Fdc1/Pad1, pH 6, 20° C.

Substrate in series [11]: O=C(O)C=Cc1ccccc1
Nature of the series: purified protein, by the assay type. The settings on record: other: substrate of purified His-Fdc1/Pad1, pH 6, 20° C.

For `CCCC=CC(=O)O` [2-Hexenoic acid], in series [1], the “decarboxylation product formation by GC-MS, in vivo” value is on record as “also been detected in vivo”. Besides, the “in vitro and in vivo activity (decarboxylation)” value (“in vitro and in vivo activity” below) in [2] is reported as “Lower level activity”. Besides, the “decarboxylation product formation by GC-MS, in vitro” value in [3] was 1-pentene product has been detected and enzyme-catalysed production of 1-pentene.
As for `CCCCC=CC(=O)O` [2-Heptenoic acid], the “decarboxylation product formation by GC-MS, in vivo” value in [1] is reported as “only been detected in vivo; also recorded: In vivo activity has also been detected”.
Regarding `C/C=C/C=C/C(=O)O` [Sorbic acid], the Kcat in series [4] was 2.793 s⁻¹. For the same molecule, the “decarboxylation product formation by GC-MS, in vivo” value in [1] is on record as “verified the presence of the anticipated decarboxylation products”. Moreover, in series [5], the “substrate dependent alkalinification in vivo” value is “yellow to red colour change observed”. In addition, the “in vitro and in vivo activity” value in series [2] was “high”. Besides, the “decarboxylation product formation by GC-MS, in vitro” value in series [3] is on record as “confirmed product formation”.
Take `COc1cc(/C=C/C(=O)O)ccc1O` [Ferulic acid]: in [4], the Kcat amounted to 30.774 s⁻¹. Further, in series [1], the “decarboxylation product formation by GC-MS, in vivo” value is “verified the presence of the anticipated decarboxylation products”. Besides, the “in vitro and in vivo activity” value in series [2] is “high”. Also, the “decarboxylation product formation by GC-MS, in vitro” value in [3] is listed as “confirmed product formation”.
The like results for `O=C(O)C=Cc1ccccc1` [Cinnamic acid] were, in that order, 34.394 s⁻¹, “verified the presence of the anticipated decarboxylation products; also recorded: confirming styrene production”, “high” and “confirmed product formation; also recorded: confirming styrene production”.
As to `CC=CC=CC=CC(=O)O` [2,4,6-Octatrienoic acid], in series [4], the “enzyme dependent spectral changes / conversion by UV-VIS” value is recorded as “enzyme catalysed conversion”. Also, in [2], the “in vitro and in vivo activity” value was “high”.
Consider `CCCCC=CC=CC(=O)O` [2,4-Nonadienoic acid], for which the “in vitro and in vivo activity” value in series [2] is “high”.
In the case of `CCCCCC=CC(=O)O` [2-Octenoic acid], the “decarboxylation product formation by GC-MS, in vivo” value is given as “only been detected in vivo” in series [1] and “In vivo activity has also been detected” in series [1] (listed as 2-octenoic acids).
For `C=CC=CC(=O)O` [2,4-Pentadienoic acid], the “in vitro and in vivo activity” value in series [2] is “high”.

B1: purified His-Fdc1/Pad1 (Saccharomyces cerevisiae S288C) (protein)
chain: MRKLNPALEFRDFIQVLKDEDDLIEITEEIDPNLEVGAIMRKAYESHLPAPLFKNLKGASKDLFSILGCPAGLRSKEKGDHGRIAHHLGLDPKTTIKEIIDYLLECKEKEPLPPITVPVSSAPCKTHILSEEKIHLQSLPTPYLHVSDGGKYLQTYGMWILQTPDKKWTNWSIARGMVVDDKHITGLVIKPQHIRQIADSWAAIGKANEIPFALCFGVPPAAILVSSMPIPEGVSESDYVGAILGESVPVVKCETNDLMVPATSEMVFEGTLSLTDTHLEGPFGEMHGYVFKSQGHPCPLYTVKAMSYRDNAILPVSNPGLCTDETHTLIGSLVATEAKELAIESGLPILDAFMPYEAQALWLILKVDLKGLQALKTTPEEFCKKVGDIYFRTKVGFIVHEIILVADDIDIFNFKEVIWAYVTRHTPVADQMAFDDVTSFPLAPFVSQSSRSKTMKGGKCVTNCIFRQQYERSFDYITCNFEKGYPKGLVDKVNENWKRYGYK
On to B1, for which the Km in series [6] turned out to be 81 µM; in series [7], 109 µM; in series [8] it was 213 µM; in series [9], 221 µM; in series [10], 203 µM; in series [11], 21 µM. The kcat in series [7] worked out at 0.336 s⁻¹; in series [8], 99 s⁻¹; in series [9], 0.588 s⁻¹.
